Reference: patent US20240408169A1 (priority 2023, published 2024)
Read-outs that look alike come from different tables or passages of the source. *1 amine or outer side, *2 acyl side, *3 side chain or, on linkers, in order; H or OH if unused. Where a SMILES comes first, the peptide text is derived from it. Bridges are numbered along the chain shown (N, C = ends). [ ]: non-standard residue; d: D form. The star is where a group is joined. NMePhe(2-(4-MorPh),5-Cl) = CN[C@@H](Cc1cc(Cl)ccc1-c1ccc(N2CCOCC2)cc1)C(=O)O; X103 = CN1CCC(Oc2ccc(-c3ccc(Cl)cc3C[C@@H](C(=O)[*:2])N(C)[*:1])cc2)CC1; X31 = CN1CCC(c2ccc(-c3ccc(Cl)cc3C[C@@H](C(=O)[*:2])N(C)[*:1])cc2)CC1; X58 = CC(C)C(=O)N1CC=C(c2ccc(Cl)cc2C[C@@H](C(=O)[*:2])N(C)[*:1])CC1; X82 = CN([C@@H](Cc1cc(Cl)ccc1-c1cnn(S(C)(=O)=O)c1)C(=O)[*:2])[*:1]; X54 = CN([C@@H](Cc1cc(F)ccc1-c1cnn(C2CCC2)c1)C(=O)[*:2])[*:1]; NMehhhLys(Me) = CN([C@@H](CCCCCCCN(C)[*:3])C(=O)[*:2])[*:1]; NMe(hhhLys) = CN([C@@H](CCCCCCCN[*:3])C(=O)[*:2])[*:1]; Oxane2carbonyl(2R-CF3) = O=C([C@@]1(C(F)(F)F)CCCCO1)*; cBuCO(3,3-F2-1-CF3) = O=C(C1(C(F)(F)F)CC(F)(F)C1)*; X25 = CCOc1ncc(Cl)cc1C[C@@H](C(=O)[*:2])N(C)[*:1]; Pro(trans-4-F) = O=C(O)[C@@H]1C[C@@H](F)CN1; Gly(cPr) = N[C@H](C(=O)O)C1CC1

Tests used:
[1] = target: T1, CyclinB1/CDK1 (Homo sapiens, UniProt P14635); experiment: Fluorescence Polarization (FP) competitive binding assay, Cyclin B1/Cdk1;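 also: fluorescence polarization read after equilibration at room temperature, with IC50 taken from serially diluted dose-response curves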
T1 construct: purchased Eurofins, discovery 14-450

[2] = target: T2, CyclinA2/CDK2 (Homo sapiens, UniProt P20248); experiment: Fluorescence Polarization (FP) competitive binding assay, Cyclin A2/Cdk2;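 also: plates equilibrated two hours at room temperature before polarization reading, IC50 fitted from eight-concentration compound titration curves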
T2 construct: purchased CRELUX Protein Services

[3] = system: OVCAR3 cells; experiment: MTT proliferation assay, OVCAR3; assay type: cell-based; conditions: 5 days compound exposure, 1:3 serial dilution starting at 10 μM;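 also: compound given as an 8- or 10-point series, one day after plating, with exposure covering roughly 3-4 cell doublings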
[4] = system: NCI-H1048 cells; experiment: MTT proliferation assay, NCI-H1048; assay type: cell-based; conditions: 5 days compound exposure, 1:3 serial dilution starting at 10 μM;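 also: Dose-response in 96-well plates over 8 or 10 concentration points, with exposure spanning 3-4 cell doublings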
[5] = target: T3, CyclinE1/CDK2 (Homo sapiens, UniProt P24864); experiment: Fluorescence Polarization (FP) competitive binding assay, Cyclin E1/Cdk2;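 also: readings taken after two-hour equilibration at room temperature in HEPES buffer with NaCl, DTT, NP-40 and BSA, IC50 fitted from eight-concentration serial dilution series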
T3 construct: purchased Eurofins, discovery 14-475

[6] = system: WI-38 cells; experiment: MTT proliferation assay, WI-38; assay type: cell-based; conditions: 3 days compound exposure, 1:3 serial dilution starting at 10 μM;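 also: Eight- or ten-point dilution series, with exposure length chosen to span about three to four cell doublings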
[7] = 10 nM Cyclin B1/Cdk1, 2 nM FAM probe; average of 2-3 independent experiments; read-out: Cyclin B FP IC50
[8] = 8 nM Cyclin A2/Cdk2, 2 nM FAM probe; average of 2-3 independent experiments; read-out: Cyclin A FP IC50
[9] = 10 nM Cyclin E1/Cdk2, 2 nM FAM probe, average of 2-3 independent experiments, read-out: Cyclin E FP IC50

Structure (SMILES)	IC50 [1, 7] [nM]	IC50 [2, 8] [nM]	GI50 [3] [nM]	GI50 [4] [nM]	IC50 [5, 9] [nM]	GI50 [6] [nM]	IC50 ([1]; read-out: Cyclin B FP IC50; 10 nM Cyclin B1/Cdk1, 2 nM FAM probe; average of 2-3 independent experiments) [nM]	IC50 ([2]; read-out: Cyclin A FP IC50; 8 nM Cyclin A2/Cdk2, 2 nM FAM probe; average of 2-3 independent experiments) [nM]	IC50 [5] [nM]
CC(C)C[C@@H]1NC(=O)[C@@H](N(C)C(=O)[C@@H](CC(=O)[C@@H]2C[C@@H](F)CN2C(=O)C2(C(F)(F)F)CC(F)(F)C2)C2CC2)CCCCCCN(C)C(=O)[C@H](Cc2cc(Cl)ccc2C2=CCOCC2)N(C)C1=O [Example 71]	20	20	90	70	1590	13800			
CC(C)C[C@@H]1NC(=O)[C@@H](N(C)C(=O)[C@@H](NC(=O)[C@@H]2C[C@@H](F)CN2C(=O)C2(C(F)(F)F)CC(F)(F)C2)C2CC2)CCCCCCCN(C)C(=O)[C@H](Cc2cc(Cl)ccc2-c2ccc(OC3CCN(C)CC3)cc2)N(C)C1=O [Example 371] ({cBuCO(3,3-F2-1-CF3)}-[Pro(trans-4-F)][Gly(cPr)][NMehhhLys(Me)]L[X103]; lactam 3-C)	20	20	10	10	920	1440			
CC(C)C[C@@H]1NC(=O)[C@@H](N(C)C(=O)[C@@H](NC(=O)[C@@H]2C[C@@H](F)CN2C(=O)C2(C(F)(F)F)CC(F)(F)C2)C2CC2)CCCCCCCN(C)C(=O)[C@H](Cc2cc(F)ccc2-c2cnn(C3CCC3)c2)N(C)C1=O [Example 96] ({cBuCO(3,3-F2-1-CF3)}-[Pro(trans-4-F)][Gly(cPr)][NMehhhLys(Me)]L[X54]; lactam 3-C)	20	20	10	10	120	8920			
CC(=O)N1[C@H]2CC[C@@H]1C=C(c1ccc(Cl)cc1C[C@H]1C(=O)N(C)CCCCCCC[C@H](N(C)C(=O)[C@@H](NC(=O)[C@@H]3C[C@@H](F)CN3C(=O)C3(C(F)(F)F)CC(F)(F)C3)C3CC3)C(=O)N[C@@H](CC(C)C)C(=O)N1C)C2 (single isomer, unassigned) [Example 57-P2]	20	20	10	10	1310	16900			
CC(C)C[C@@H]1NC(=O)[C@@H](N(C)C(=O)[C@@H](NC(=O)[C@@H]2C[C@@H](F)CN2C(=O)C2(C(F)(F)F)CC(F)(F)C2)C2CC2)CCCCCCCN(C)C(=O)[C@H](Cc2cc(Cl)ccc2-c2ccc(C3CCN(C)CC3)cc2)N(C)C1=O [Example 358] ({cBuCO(3,3-F2-1-CF3)}-[Pro(trans-4-F)][Gly(cPr)][NMehhhLys(Me)]L[X31]; lactam 3-C)	20	20	10	10	550	2130			
CC(C)C[C@@H]1NC(=O)[C@@H](N(C)C(=O)[C@@H](NC(=O)[C@@H]2C[C@@H](F)CN2C(=O)[C@@]2(C(F)(F)F)CCCCO2)C2CC2)CCCCCCCN(C)C(=O)[C@H](Cc2cc(Cl)ccc2-c2cnn(S(C)(=O)=O)c2)N(C)C1=O [Example 299] ({Oxane2carbonyl(2R-CF3)}-[Pro(trans-4-F)][Gly(cPr)][NMehhhLys(Me)]L[X82]; lactam 3-C)	20	20	10	10	130	14300			
CC(C)C[C@@H]1NC(=O)[C@@H](N(C)C(=O)[C@@H](NC(=O)[C@@H]2C[C@@H](F)CN2C(=O)C2(C(F)(F)F)CC(F)(F)C2)C2CC2)CCCCCCCNC(=O)[C@H](Cc2cc(Cl)ccc2C2=CCN(C(=O)C(C)C)CC2)N(C)C1=O [Example 98] ({cBuCO(3,3-F2-1-CF3)}-[Pro(trans-4-F)][Gly(cPr)][NMe(hhhLys)]L[X58]; lactam 3-C)	20	20	20	20	1100	16400			
CCOc1ncc(Cl)cc1C[C@H]1C(=O)N(C)CCCCCCC[C@H](N(C)C(=O)[C@@H](NC(=O)[C@@H]2C[C@@H](F)CN2C(=O)[C@@]2(C(F)(F)F)CCCCO2)C2CC2)C(=O)N[C@@H](CC(C)C)C(=O)N1C [Example 226] ({Oxane2carbonyl(2R-CF3)}-[Pro(trans-4-F)][Gly(cPr)][NMehhhLys(Me)]L[X25]; lactam 3-C)			30	20		8390	20	20	100
CC(C)C[C@@H]1NC(=O)[C@@H](N(C)C(=O)[C@@H](NC(=O)[C@@H]2C[C@@H](F)CN2C(=O)C2(C(F)(F)F)CC(F)(F)C2)C2CC2)CCCCCCCN(C)C(=O)[C@H](Cc2cc(Cl)ccc2-c2ccc(N3CCOCC3)cc2)N(C)C1=O [Example 261] ({cBuCO(3,3-F2-1-CF3)}-[Pro(trans-4-F)][Gly(cPr)][NMehhhLys(Me)]L[NMePhe(2-(4-MorPh),5-Cl)]; lactam 3-C)	20	20	10	10	430	14100			
